# Measurements taken from ChEMBL document CHEMBL5303573, “Mapping human microbiome drug metabolism by gut bacteria and their genes” (Nature, 2019).
# Tests used:
# [1] = The drug is tested on Ruminococcus torques strain: ATCC27756 for biotransformation. The drug concentrations were measured before and after a 12-h incubation by liquid-chromatography-coupled mass spectrometry (LC–MS); assay type: ADME; parameters: dose 2 uM, timepoint 0 vs 12 hours; conditions: 2 µM
# [2] = bifidobacterium adolescentis, 12 h, 2 µM
# Description: The drug is tested on Bifidobacterium adolescentis strain: ATCC 15703 for biotransformation. The drug concentrations were measured before and after a 12-h incubation by liquid-chromatography-coupled mass spectrometry (LC–MS)
# [3] = The drug is tested on Enterococcus faecalis strain: V583 for biotransformation. The drug concentrations were measured before and after a 12-h incubation by liquid-chromatography-coupled mass spectrometry (LC–MS); conditions: 2 µM
# [4] = The drug is tested on Providencia rettgeri strain: DSM1131 for biotransformation. The drug concentrations were measured before and after a 12-h incubation by liquid-chromatography-coupled mass spectrometry (LC–MS); assay type: ADME; parameters: dose 2 uM, timepoint 0 vs 12 hours; conditions: 2 µM
# [5] = bacteroides thetaiotaomicron, 12 h, 2 µM
# Description: The drug is tested on Bacteroides thetaiotaomicron strain: VPI-5482 for biotransformation. The drug concentrations were measured before and after a 12-h incubation by liquid-chromatography-coupled mass spectrometry (LC–MS)
# [6] = The drug is tested on Bacteroides fragilis strain: HMW610 for biotransformation. The drug concentrations were measured before and after a 12-h incubation by liquid-chromatography-coupled mass spectrometry (LC–MS); conditions: 2 µM
# [7] = The drug is tested on Blautia luti strain: DSM14534 for biotransformation. The drug concentrations were measured before and after a 12-h incubation by liquid-chromatography-coupled mass spectrometry (LC–MS); assay type: ADME; parameters: dose 2 uM, timepoint 0 vs 12 hours; conditions: 2 µM
# [8] = akkermansia muciniphila, 12 h, 2 µM
# Description: The drug is tested on Akkermansia muciniphila strain: ATCC BAA-835 for biotransformation. The drug concentrations were measured before and after a 12-h incubation by liquid-chromatography-coupled mass spectrometry (LC–MS)
# [9] = The drug is tested on Dorea formicigenerans strain: ATCC27755 for biotransformation. The drug concentrations were measured before and after a 12-h incubation by liquid-chromatography-coupled mass spectrometry (LC–MS); conditions: 2 µM
# [10] = limosilactobacillus reuteri cf48-3a, 12 h, 2 µM
# Description: The drug is tested on Lactobacillus reuteri CF48-3A strain: BEI HM-102 for biotransformation. The drug concentrations were measured before and after a 12-h incubation by liquid-chromatography-coupled mass spectrometry (LC–MS)
# [11] = enterocloster bolteae, 12 h, 2 µM
# Description: The drug is tested on Clostridium bolteae strain: ATCCBAA-613 for biotransformation. The drug concentrations were measured before and after a 12-h incubation by liquid-chromatography-coupled mass spectrometry (LC–MS)
# [12] = The drug is tested on Edwardsiella tarda strain: ATCC23685 for biotransformation. The drug concentrations were measured before and after a 12-h incubation by liquid-chromatography-coupled mass spectrometry (LC–MS); conditions: 2 µM
# [13] = The drug is tested on Bacteroides ovatus strain: ATCC8483 for biotransformation. The drug concentrations were measured before and after a 12-h incubation by liquid-chromatography-coupled mass spectrometry (LC–MS); conditions: 2 µM
# [14] = The drug is tested on Bacteroides uniformis strain: ATCC8492 for biotransformation. The drug concentrations were measured before and after a 12-h incubation by liquid-chromatography-coupled mass spectrometry (LC–MS); conditions: 2 µM
# [15] = The drug is tested on Bacteroides fragilis strain: HMW615 for biotransformation. The drug concentrations were measured before and after a 12-h incubation by liquid-chromatography-coupled mass spectrometry (LC–MS); conditions: 2 µM
# [16] = The drug is tested on Odoribacter splanchnicus strain: fecal isolate for biotransformation. The drug concentrations were measured before and after a 12-h incubation by liquid-chromatography-coupled mass spectrometry (LC–MS); conditions: 2 µM
# [17] = The drug is tested on Bacteroides xylanisolvens strain: DSM18836 for biotransformation. The drug concentrations were measured before and after a 12-h incubation by liquid-chromatography-coupled mass spectrometry (LC–MS); conditions: 2 µM
# [18] = The drug is tested on Bacteroides caccae strain: ATCC43185 for biotransformation. The drug concentrations were measured before and after a 12-h incubation by liquid-chromatography-coupled mass spectrometry (LC–MS); conditions: 2 µM
# [19] = The drug is tested on Parabacteroides merdae strain: ATCC43184 for biotransformation. The drug concentrations were measured before and after a 12-h incubation by liquid-chromatography-coupled mass spectrometry (LC–MS); conditions: 2 µM
Structure (SMILES),Bacterial Biotransformation [1],Bacterial Biotransformation [2],Bacterial Biotransformation [3],Bacterial Biotransformation [4],Bacterial Biotransformation [5],Bacterial Biotransformation [6],Bacterial Biotransformation [7],Bacterial Biotransformation [8],Bacterial Biotransformation [9],Bacterial Biotransformation [10],Bacterial Biotransformation [11],Bacterial Biotransformation [12],Bacterial Biotransformation [13],Bacterial Biotransformation [14],Bacterial Biotransformation [15],Bacterial Biotransformation [16],Bacterial Biotransformation [17],Bacterial Biotransformation [18],Bacterial Biotransformation [19]
O=C1NCC2(CCN(CCc3ccccc3)CC2)O1 [FENSPIRIDE],Compound NOT metabolized,Compound NOT metabolized,Compound NOT metabolized,Compound NOT metabolized,Compound metabolized,Compound metabolized,Compound NOT metabolized,Compound NOT metabolized,Compound NOT metabolized,Compound NOT metabolized,Compound NOT metabolized,Compound NOT metabolized,Compound metabolized,Compound metabolized,Compound metabolized,Compound NOT metabolized,Compound NOT metabolized,Compound NOT metabolized,
Nc1nnc(-c2cccc(Cl)c2Cl)c(N)n1 [LAMOTRIGINE],Compound NOT metabolized,Compound NOT metabolized,Compound NOT metabolized,Compound NOT metabolized,Compound NOT metabolized,Compound NOT metabolized,Compound NOT metabolized,Compound NOT metabolized,Compound NOT metabolized,Compound NOT metabolized,Compound NOT metabolized,Compound NOT metabolized,Compound NOT metabolized,Compound NOT metabolized,Compound NOT metabolized,,Compound NOT metabolized,Compound NOT metabolized,
CCN(CC)CCNC(=O)c1cc(Cl)c(N)cc1OC [METOCLOPRAMIDE],Compound NOT metabolized,Compound NOT metabolized,Compound NOT metabolized,Compound NOT metabolized,Compound NOT metabolized,Compound NOT metabolized,Compound NOT metabolized,,Compound NOT metabolized,Compound NOT metabolized,Compound NOT metabolized,Compound NOT metabolized,Compound NOT metabolized,Compound NOT metabolized,Compound NOT metabolized,Compound NOT metabolized,Compound NOT metabolized,Compound NOT metabolized,Compound NOT metabolized
O=C(Nc1ccccc1)OCC(CN1CCCCC1)OC(=O)Nc1ccccc1 (centres undefined) [DIPERODON],Compound NOT metabolized,Compound NOT metabolized,Compound NOT metabolized,Compound NOT metabolized,Compound NOT metabolized,Compound NOT metabolized,Compound NOT metabolized,Compound NOT metabolized,Compound NOT metabolized,Compound NOT metabolized,Compound NOT metabolized,Compound NOT metabolized,Compound NOT metabolized,Compound NOT metabolized,Compound NOT metabolized,,Compound NOT metabolized,Compound NOT metabolized,Compound NOT metabolized
CC(C)N(CCC(C(N)=O)(c1ccccc1)c1ccccn1)C(C)C.O=P(O)(O)O (centres undefined) [DISOPYRAMIDE PHOSPHATE],,Compound NOT metabolized,Compound NOT metabolized,Compound NOT metabolized,,Compound NOT metabolized,Compound NOT metabolized,Compound NOT metabolized,Compound NOT metabolized,Compound NOT metabolized,Compound NOT metabolized,Compound NOT metabolized,Compound NOT metabolized,,Compound NOT metabolized,Compound NOT metabolized,Compound NOT metabolized,Compound NOT metabolized,Compound NOT metabolized
COCCc1ccc(OCC(O)CNC(C)C)cc1.COCCc1ccc(OCC(O)CNC(C)C)cc1.O=C(O)C(O)C(O)C(=O)O (centres undefined) [METOPROLOL TARTRATE],Compound NOT metabolized,Compound NOT metabolized,Compound NOT metabolized,Compound NOT metabolized,Compound NOT metabolized,Compound NOT metabolized,Compound NOT metabolized,,Compound NOT metabolized,Compound NOT metabolized,Compound NOT metabolized,Compound NOT metabolized,Compound NOT metabolized,Compound NOT metabolized,Compound NOT metabolized,Compound NOT metabolized,,Compound NOT metabolized,Compound NOT metabolized
C#C[C@]1(O)CC[C@H]2[C@@H]3CCC4=CC(=O)CC[C@@H]4[C@H]3CC[C@@]21CC [LEVONORGESTREL],,Compound NOT metabolized,,Compound NOT metabolized,,Compound metabolized,Compound NOT metabolized,Compound NOT metabolized,Compound NOT metabolized,Compound NOT metabolized,Compound NOT metabolized,Compound NOT metabolized,Compound NOT metabolized,Compound metabolized,Compound metabolized,Compound metabolized,Compound metabolized,Compound metabolized,Compound metabolized
Cc1cc2c(s1)Nc1ccccc1N=C2N1CCN(C)CC1 [OLANZAPINE],Compound NOT metabolized,Compound NOT metabolized,Compound NOT metabolized,Compound NOT metabolized,,Compound metabolized,Compound NOT metabolized,Compound NOT metabolized,Compound NOT metabolized,Compound NOT metabolized,Compound NOT metabolized,Compound NOT metabolized,,,Compound metabolized,Compound metabolized,Compound NOT metabolized,Compound NOT metabolized,
N#Cc1ccc2c(c1)N(CCCN1CCC(O)CC1)c1ccccc1S2 [PERICIAZINE],Compound NOT metabolized,Compound NOT metabolized,Compound NOT metabolized,Compound NOT metabolized,,Compound metabolized,Compound NOT metabolized,Compound NOT metabolized,Compound NOT metabolized,,Compound NOT metabolized,Compound NOT metabolized,Compound NOT metabolized,Compound NOT metabolized,Compound NOT metabolized,,,Compound metabolized,
